Test results reported in patent publication US12485107B2, “Methods for the prevention or treatment of cytokine storm” (Beth Israel Deaconess Medical Center, Inc., priority 2019, dated 2025).
“Also recorded” adds a separate entry of the source.

Experiments:
[1] = test system: ID8 murine ovarian tumor cells; assay: Annexin V/propidium iodide flow cytometry of chemotherapy-treated ID8 cells; type: cell-based; details: annexin V/PI; cisplatin 30 μM 48 hours, carboplatin 100 μM 72 hours, paclitaxel 1 μM 48 hours
Protocol: Chemotherapy-generated murine (ID8) and human (OVCAR5) ovarian tumor cell debris were prepared by re-feeding 70% confluent T150 flasks with complete medium plus 1 μM paclitaxel (Cayman Chemical, Ann Arbor, MI) or 100 μM carboplatin (Sigma Aldrich, Natick, MA) and incubating for 48 or 72 hours, respectively, at 37° C. Cisplatin-generated ID8 debris was prepared by re-feeding 70% confluent T150 flasks with complete medium plus 30 μM cisplatin (Sigma Aldrich, Natick, MA) and incubating for 48 hours at 37° C. The resulting floating population (e.g., dead cells or “debris”) was collected, counted via hemocytometer, and pelleted. The dead cells were resuspended with phosphate-buffered saline (PBS), pelleted, and resuspended again at the desired concentration in PBS.
Murine (ID8) or human (OVCAR5) ovarian tumor cells were treated with vehicle or a chemotherapeutic agent (e.g., cisplatin, carboplatin, or paclitaxel) as described. B/CMBA.Ov murine ovarian epithelial cells were treated with vehicle or PTUPB (1 or 5 μM) for 24 hours. The floating population (e.g., dead cells or “debris”) was collected, and the remaining adhered cells were trypsinized and combined with the dead cells. RAW264.7 murine macrophages were treated with vehicle or PTUPB (5 μM) for 24 hours. The floating population was collected and the remaining adhered cells were detached using a cell scraper (Corning Inc., Corning, NY) and combined with the dead cells. Cells were counted via hemocytometer, pelleted, and resuspended in PBS at 1×10^6 cells/mL. Next, 2×10^5 cells were stained with annexin V and propidium iodide (PI) according to FITC Annexin V/Dead Cell Apoptosis Kit protocol (Life Technologies, Carlsbad, CA). Staining was assessed using the BD LSR Fortessa (BD Biosciences, San Jose, CA) at the Dana-Farber Cancer Institute Jimmy Fund Flow Cytometry Core, and analyzed using FlowJo software (Tree Star Inc., Ashland, OR). Experiments were performed three times with similar results.

[2] = test system: RAW264.7 murine macrophages; type: cell-based; details: 5 μM, 2 hours pre-treatment

| SMILES | cell death in ID8 ovarian cells [1] [%] | cytokine storm released by macrophages stimulated with aflatoxin B1-generated Hepa 1-6 debris [2] |
| --- | --- | --- |
| N.N.[Cl][Pt][Cl] [Cisplatin] | 67 | – |
| COc1ccc(-n2nc(CCCNC(=O)Nc3ccc(C(F)(F)F)cc3)cc2-c2ccccc2)cc1 [Ome-21i, 1-(3-(1-(4-methoxyphenyl)-5-phenyl-1H-pyrazol-3-yl)propyl)-3-(4-(trifluoromethyl)phenyl)urea] | – | shows potency in down-regulating; also recorded: inhibited |
| N.N.O=C([O-])C1(C(=O)[O-])CCC1.[Pt+2] [carboplatin] | 78 | – |
| CC(=O)O[C@H]1C(=O)[C@@]2(C)[C@H]([C@H](OC(=O)c3ccccc3)[C@]3(O)C[C@H](OC(=O)[C@H](O)[C@@H](NC(=O)c4ccccc4)c4ccccc4)C(C)=C1C3(C)C)[C@]1(OC(C)=O)CO[C@@H]1C[C@@H]2O [paclitaxel] | 56 | – |
